Results on ten compounds are retold here after patent EP0590919A1, “Therapeutic agents for parkinson's disease” (KYOWA HAKKO KOGYO CO., LTD., priority 1992, dated 1994).

Data set [1] deals with MPTP-treated C57BL/6 mice. Nature of the data set: Effect on locomotor activity in Parkinson's disease model in mice (MPTP). The class given is in vivo. The settings on record: for Amount of Active Movements (average count ± S.E.M): MPTP (+). As for the experimental part: The experiment was performed by using several groups of 7-weeks-old male C57BL/6 mice (weighing 20 to 24 g, Japan SLC), each group consisting of 8 mice. MPTP (Aldrich Chemical Co., Inc.) dissolved in a physiological saline solution (Otsuka Pharmaceutical Co., Ltd.) was intraperitoneally administered to each mouse once a day for five consecutive days at a dose of 30 mg/kg. A test compound was suspended in injectable distilled water (Otsuka Phamaceutical Co., Ltd.) containing Tween 80 [polyoxyethylene (20) sorbitan monooleate]. L-DOPA (Kyowa Hakko Kogyo Co., Ltd.) was suspended in 0.3% CMC (sodium carboxylmethylcellulose) and bromocriptine was suspended in injectable distilled water. Thirty minutes after the final MPTP administration, the test compound suspensions and the control suspension [injectable distilled water (Otsuka Pharmaceutical Co., Ltd.) containing Tween 80] containing no test compound were orally administered to separate groups of the mice (0.1 ml per 10 g of body weight). […] Statistical comparison of the values was carried out by Student's t-test.

Data set [2] has as its target T1, A₂ receptor (Rattus norvegicus, UniProt P30543).
T1 construct: from tissue; host or cells: rat corpus striatum membrane preparation
Kind of data set: Adenosine A₂ receptor binding test (³H-NECA binding). The settings on record: for inhibition at 0.1 µM / inhibition at 1 µM / inhibition at 10 µM / inhibition at 100 µM: read-out: Inhibition (%) A₂ Receptor; for Ratio (A₁/A₂): ratio of Ki values A₁/A₂.

For data set [3], the system named is Haloperidol-Induced Catalepsy. Nature of the data set: Effect on haloperidol-induced catalepsy. The conditions noted are these: for ED50: Mus musculus, 1 h, ten mice at each dose, effective = catalepsy score 3 or less, Probit analysis, oral, read-out: ED₅₀; for Number of the Animals Showing Remission: of five mice, catalepsy score not more than 4 points; for Number of the Animals Showing Remission / Remission Rate (%) / Total Score: 10 mg/kg orally; for Remission Rate (%): rate of decrease in total score based on control group; for Total Score: total catalepsy score of five mice (25 points at the full), haloperidol 1.0 mg/kg i.p. The class given is in vivo, mice. The method in brief:
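Mice got haloperidol 1.0 mg/kg i.p. in 0.3% CMC, then test compounds orally 1 hr later in 0.3% CMC or Tween 80/water. Catalepsy was scored on a 4.5 cm-high bar 1 hr after dosing; remission meant score ≤4 points. ED₅₀ came from Probit analysis.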

Data set [4] deals with dd-strain male mice. Kind of data set: Acute toxicity test (minimum lethal dose, oral). The settings on record: oral administration, three mice per group, mortality seven days after administration. The data set is classed as in vivo. As for the experimental part:
Test compounds were orally administered to groups of dd-strain male mice weighing 20 ± 1 g, each group consisting of three mice. Seven days after the administration, minimum lethal dose (MLD) of each compound was determined by observing the mortality.

Data set [5] addresses T2, A₁ receptor (Cavia porcellus, UniProt P47745).
T2 construct: from tissue; host or cells: guinea pig cerebrum membrane preparation
T2 sequence (P47745 1-326): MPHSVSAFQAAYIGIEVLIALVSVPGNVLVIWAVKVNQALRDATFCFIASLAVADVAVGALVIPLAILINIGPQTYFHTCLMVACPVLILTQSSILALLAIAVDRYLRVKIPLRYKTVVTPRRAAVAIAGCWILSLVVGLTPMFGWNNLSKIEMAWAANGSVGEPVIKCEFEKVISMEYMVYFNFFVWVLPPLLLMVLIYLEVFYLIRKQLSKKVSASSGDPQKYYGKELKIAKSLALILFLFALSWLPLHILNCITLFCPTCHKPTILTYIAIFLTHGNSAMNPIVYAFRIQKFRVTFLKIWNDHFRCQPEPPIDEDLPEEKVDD
Nature of the data set: Adenosine A₁ receptor binding test (³H-CHA binding). More on the design: species or system guinea pig. The settings on record: for inhibition at 100 µM: 10⁻⁴M; for inhibition at 100 µM / inhibition at 10 µM: guinea pig cerebrum; for inhibition at 10 µM: 10⁻⁵M; for Ki: Cheng-Prusoff's equation. As for the experimental part: Cerebrum of a guinea pig was suspended in ice-cooled 50 mM Tris hydroxymethyl aminomethane hydrochloride (Tris HCl) buffer (pH 7.7) by using Polytron homogenizer (manufactured by […] Co.). […] The suspension was centrifuged under the same conditions, and the final precipitate was suspended once again in 50 mM Tris HCl buffer to give a tissue concentration of 100 mg (wet weight)/ml. The tissue suspension was incubated at 37°C for 30 minutes in the presence of 0.02 unit/mg tissue of adenosine deaminase (manufactured by Sigma Co.). The tissue suspension was then centrifuged (50,000 x g, 10 minutes), and 50 mM Tris HCl buffer was added to the precipitate to adjust the concentration of tissue to 10 mg (wet weight)/ml. […] The mixture solution was allowed to stand at 25°C for 90 minutes and then rapidly filtered by suction through a glass fiber filter (GF/C manufactured by Whatman Co.). […] The radioactivity on the filter was determined with a liquid scintillation counter (manufactured by Packard Instrument Co.). […] The inhibition constant (Ki value) shown in the table was calculated by the Cheng-Prusoff's equation.

Like-named read-outs stand apart in the source and are kept apart here. Marks after values point to notes of the source that are not given here.

T1 sequence (P30543 whole entry): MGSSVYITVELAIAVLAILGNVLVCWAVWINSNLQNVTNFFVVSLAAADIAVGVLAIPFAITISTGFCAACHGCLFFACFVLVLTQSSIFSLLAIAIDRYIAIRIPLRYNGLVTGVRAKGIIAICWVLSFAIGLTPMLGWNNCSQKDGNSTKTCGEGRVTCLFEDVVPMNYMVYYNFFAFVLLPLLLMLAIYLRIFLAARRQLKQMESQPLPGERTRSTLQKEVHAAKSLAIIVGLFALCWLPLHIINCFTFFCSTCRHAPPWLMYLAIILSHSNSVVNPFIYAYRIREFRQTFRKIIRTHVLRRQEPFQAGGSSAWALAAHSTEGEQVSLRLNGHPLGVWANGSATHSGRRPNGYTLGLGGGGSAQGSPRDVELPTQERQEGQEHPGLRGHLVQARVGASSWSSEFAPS

Take `CC(C)C[C@H]1C(=O)N2CCC[C@H]2[C@]2(O)O[C@](NC(=O)[C@@H]3C=C4c5cccc6[nH]c(Br)c(c56)C[C@H]4N(C)C3)(C(C)C)C(=O)N12` [Bromocriptine, bromocriptine, reference compound]: the “inhibitory activity against the depression of locomotor activity caused by MPTP” value in data set [1] (mouse, in vivo) is on record as “only a weak inhibitory activity”.
What is called inhibition is the change of the read-out against control, counted positive when it falls. Broadly, the Ki is the dissociation constant of the complex between target and ligand, obtained from inhibition or displacement. High values mean a looser hold on the target, low ones a stronger hold on the target. Consider `CCn1c(=O)c2c(nc(/C=C/c3ccc4c(c3)OCO4)n2C)n(CC)c1=O` [Compound 16, (E)-1,3-Diethyl-7-methyl-8-(3,4-methylenedioxystyryl)xanthine], for which, in data set [2], the inhibition at 0.1 µM turned out to be 80%, the inhibition at 1 µM turned out to be 96%, the inhibition at 10 µM was found to be 88% and the inhibition at 100 µM amounted to 93%. Further, affinity in data set [2] (³H-NECA binding) was put at a Ki of 6.1 nM. In addition, in data set [3], the ED50 is 0.76 mg/kg, the “Number of the Animals Showing Remission” value was determined as 5, the “Remission Rate (%)” value is 84% and the “Total Score” value was found to be 4. For the same compound, the MLD in data set [4] was more than 300 mg/kg. For the same compound, in data set [5], the inhibition at 100 µM was found to be 72% and the inhibition at 10 µM came to 53%.
As for `CCn1c(=O)c2c(nc(/C=C/c3ccc4c(c3)OCCO4)n2C)n(CC)c1=O` [Compound 18, (E)-8-[2-(1,4-Benzodioxan-6-yl)vinyl]-1,3-diethyl-7-methylxanthine], in data set [2], the inhibition at 0.1 µM is 84%, the inhibition at 1 µM was found to be 90%, the inhibition at 10 µM was 104% and the inhibition at 100 µM was determined as 98%. Besides, in data set [2] (³H-NECA binding), affinity was put at a Ki of 1.5 nM. For the same compound, in data set [3], the ED50 is 1.9 mg/kg, the “Number of the Animals Showing Remission” value stood at 5, the “Remission Rate (%)” value came out at 84% and the “Total Score” value was found to be 4. The same compound registered an MLD in data set [4] of more than 300 mg/kg. In addition, in data set [5], the inhibition at 100 µM came out at 66% and the inhibition at 10 µM amounted to 56%.
As to `COc1ccc(/C=C/c2nc3c([nH]2)c(=O)n(C)c(=O)n3C)c(OC)c1OC` [Compound 19, (E)-8-(2,3,4-Trimethoxystyryl)theophylline], in data set [2], the “Ratio (A₁/A₂)” value is on record as more than 320, the inhibition at 0.1 µM stood at 65%, the inhibition at 1 µM is 87% and the inhibition at 10 µM worked out at 92%. In data set [2], the inhibition at 100 µM stood at 91%. For the same compound, the Ki in data set [2] (³H-NECA binding) was found to be 310 nM. For the same compound, the MLD in data set [4] is listed as more than 300 mg/kg. Also, in data set [5], the inhibition at 100 µM came out at 31%, the inhibition at 10 µM stood at 10% and the Ki was more than 100000 nM.
On to `COc1ccc(/C=C/c2nc3c(c(=O)n(C)c(=O)n3C)n2C)c(OC)c1OC` [Compound 20, (E)-8-(2,3,4-Trimethoxystyryl)caffeine], for which, in data set [2], the “Ratio (A₁/A₂)” value is given as > 2,000, the inhibition at 0.1 µM turned out to be 51%, the inhibition at 1 µM came to 83% and the inhibition at 10 µM was 90%. Moreover, in data set [2], the inhibition at 100 µM was 88%. In data set [2] (³H-NECA binding), this compound returned an inhibition constant (Ki) of 50 nM. Besides, in data set [3], the ED50 was 0.35 mg/kg, the “Number of the Animals Showing Remission” value is reported as 5, the “Remission Rate (%)” value stood at 72% and the “Total Score” value came to 7. The MLD in data set [4] is listed as more than 300 mg/kg. In data set [1] (test compound 2.5 mg/kg orally, 30 minutes starting 30 minutes after administration), the “Amount of Active Movements (average count ± S.E.M)” value was 937 ±189.5 count. Also, in data set [5], the inhibition at 100 µM worked out at 1%, the inhibition at 10 µM is 11% and the Ki was more than 100000 nM.
`COc1ccc(/C=C/c2nc3c([nH]2)c(=O)n(C)c(=O)n3C)c(C)c1C` [Compound 21, (E)-8-(4-Methoxy-2,3-dimethylstyryl)theophylline]: in data set [2], the inhibition at 0.1 µM amounted to 56%, the inhibition at 1 µM worked out at 68%, the inhibition at 10 µM is 83% and the inhibition at 100 µM is 79%. This compound also had a Ki in data set [2] (³H-NECA binding) of 22 nM. Besides, in data set [3], the “Number of the Animals Showing Remission” value is on record as 4, the “Remission Rate (%)” value was 24% and the “Total Score” value stood at 19. This compound yielded an MLD in data set [4] of more than 100 mg/kg. Moreover, in data set [5], the inhibition at 100 µM is 40%, the inhibition at 10 µM is 36% and the Ki is more than 100000 nM.
For the compound `COc1ccc(/C=C/c2nc3c(c(=O)n(C)c(=O)n3C)n2C)c(C)c1C` [Compound 22, (E)-8-(4-Methoxy-2,3-dimethylstyryl)caffeine], in data set [2], the “Ratio (A₁/A₂)” value was > 33,000, the inhibition at 0.1 µM amounted to 78%, the inhibition at 1 µM came to 85% and the inhibition at 10 µM was found to be 78%. Also, the inhibition at 100 µM in data set [2] came out at 81%. The same compound had a Ki in data set [2] (³H-NECA binding) of 3 nM. For the same compound, in data set [3], the “Number of the Animals Showing Remission” value was found to be 3, the “Remission Rate (%)” value is listed as 20% and the “Total Score” value stood at 20. In data set [4], this compound registered an MLD of more than 100 mg/kg. In addition, in data set [5], the inhibition at 100 µM was 1%, the inhibition at 10 µM was determined as 1% and the inhibition constant Ki was more than 100000 nM.
On to `Cn1c(=O)c2[nH]c(/C=C/c3ccc4c(c3)OCO4)nc2n(C)c1=O` [Compound 23, (E)-8-(3,4-Methylenedioxystyryl)theophylline], for which the inhibition at 100 µM in data set [2] (10⁻⁴M, ³H-NECA binding, rat corpus striatum) is 81%. In addition, the inhibition at 10 µM in data set [2] (10⁻⁵M, ³H-NECA binding, rat corpus striatum) was 90%. The inhibition at 1 µM in data set [2] (10⁻⁶M, ³H-NECA binding, rat corpus striatum) is 60%. Moreover, in data set [2] (10⁻⁷M, ³H-NECA binding, rat corpus striatum), the inhibition at 0.1 µM was 38%. In data set [4], this compound showed an MLD of more than 300 mg/kg. Also, in data set [5], the inhibition at 100 µM was 38%, the inhibition at 10 µM came out at 32% and the Ki was more than 100000 nM.
For `Cn1c(=O)c2c(nc(/C=C/c3ccc4c(c3)OCO4)n2C)n(C)c1=O` [Compound 24, (E)-8-(3,4-Methylenedioxystyryl)caffeine], in data set [2], the “Ratio (A₁/A₂)” value is reported as > 3,800, the inhibition at 0.1 µM is 62%, the inhibition at 1 µM amounted to 57% and the inhibition at 10 µM turned out to be 75%. In addition, the inhibition at 100 µM in data set [2] is 85%. In data set [2] (³H-NECA binding), the Ki came out at 26 nM. Also, the MLD in data set [4] is on record as more than 300 mg/kg. In addition, in data set [5], the inhibition at 100 µM was -25%, the inhibition at 10 µM is -4% and the Ki is more than 100000 nM.
For `N[C@@H](Cc1ccc(O)c(O)c1)C(=O)O` [L-DOPA, reference compound], the “Amount of Active Movements (average count ± S.E.M)” value in data set [1] (L-DOPA 300 mg/kg orally) is given as 561 ±271.01^1) count. In addition, the “inhibitory activity against the depression of locomotor activity caused by MPTP” value in data set [1] (oral, L-DOPA 300 mg/kg, bromocriptine 40 mg/kg, Compounds (I) 10 mg/kg or less than 10 mg/kg) was “only a weak inhibitory activity”.
